This is an account of results in PubChem BioAssay (NCI).

Common to all, as to test: NCI anticancer screen, dose series, 48 h
Assay [1] deals with MDA-MB-435.
Assay [2] deals with T-47D breast.
For assay [3], the system named is COLO 205 colon.
For assay [4], the system named is SNB-75 CNS.
The subject of assay [5] is M14 melanoma.
Assay [6] deals with NCI-H226 lung.
In assay [7] the test system is HCC-2998 colon.
In assay [8] the test system is KM12 colon.
Assay [9] relates to HL-60(TB) leukemia.
In assay [10] the test system is RPMI-8226 leukemia.

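A five-concentration, 48-hour dose response in 96-well plates underlies each endpoint, interpolated linearly between surrounding concentrations. TGI is the concentration that stops growth completely.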

Turning to `OCC1OC(n2cnc3cccnc32)CC1O` (centres undefined), the TGI in assay [1], in [2], in assay [3], in [4], in assay [5] and in assay [6] was greater than 100 µM throughout. The TGI in assay [7], in [8] and in [9] was greater than 100 µM throughout.

`Nc1ccc2c(c1)C(=O)c1ccccc1-2`: the TGI in assay [1], in assay [2], in [10], in [3], in [4] and in [5] was greater than 100 µM in each case. Further, the TGI in [6], in assay [7], in assay [8] and in assay [9] was greater than 100 µM in each case.

As for `O=C(C1=C(C(=O)c2ccccc2)SC2(S1)C(C(=O)c1ccccc1)=C(C(=O)c1ccccc1)Sc1c2ssc1=O)c1ccccc1`, the TGI in assay [1] is greater than 100 µM; in assay [2], greater than 100 µM; in [3], greater than 100 µM; in [4] it was greater than 100 µM; in [5] it was greater than 100 µM; in assay [6] it was 55 µM. In addition, the values for the TGI in assay [7], in [8] and in [9] were greater than 100 µM, 92.7 µM and 69.8 µM, respectively.

Consider `O=C(CC(O)(C(F)(F)F)C(F)(F)F)C(CCCl)C(O)(C(F)(F)F)C(F)(F)F` (centres undefined), for which the TGI was greater than 100 µM in [1]; 78 µM in assay [2]; 61.1 µM in [10]; 26.8 µM in assay [3]; 96.4 µM in [4]; greater than 100 µM in assay [5]. Besides, the TGI in assay [6] was greater than 100 µM; in assay [7], greater than 100 µM; in [8], greater than 100 µM; in assay [9], 86.5 µM.

For the compound `N#CC1=C(N)C(C#N)(C#N)C(c2ccc(F)cc2)C=C1C1CC1` (centres undefined), the TGI was found to be 12.4 µM in assay [1]; 29 µM in [2]; 40.4 µM in assay [10]; 24.9 µM in assay [3]; 18.1 µM in [4]; 15.8 µM in assay [5]. Further, the TGI turned out to be 25.4 µM in assay [7], 16 µM in assay [8] and 34.8 µM in [9].

On to `Cc1ccc(S(=O)(=O)n2cncc2CO)cc1`, for which the TGI in assay [1], in [2], in assay [10], in assay [3], in [4] and in [5] was greater than 100 µM in each case. Moreover, the TGI in assay [6], in [7], in assay [8] and in assay [9] was greater than 100 µM throughout.

Consider `C=CCC(CNC(=O)OCc1ccccc1)O[Si](C)(C)C(C)(C)C` (centres undefined), for which the TGI in assay [1] was greater than 100 µM; in assay [2] it was greater than 100 µM; in [10], 64.9 µM; in assay [3] it was 30.8 µM; in assay [4], greater than 100 µM; in [5] it was greater than 100 µM. For the same compound, the TGI was 85.8 µM in assay [6], greater than 100 µM in assay [7], greater than 100 µM in assay [8] and 51.9 µM in assay [9].

Turning to `CC1(C)O[C@@H](CO)[C@H]([C@@]23OC[C@H]4OC(C)(C)OC4[C@@H]2OC(C)(C)O3)O1` (some centres undefined), the TGI in assay [1], in [2], in [10], in assay [3], in [4] and in assay [5] was greater than 100 µM in each case. Further, the TGI in assay [6], in assay [7], in assay [8] and in assay [9] was greater than 100 µM throughout.

With `O=C(O)C(CCc1ccccn1)c1ccccc1` (centres undefined), the TGI in [1], in [2], in assay [10], in [3], in [4] and in assay [5] was greater than 100 µM throughout. Also, the TGI in assay [6], in assay [7], in assay [8] and in assay [9] was greater than 100 µM each time.

Take `CC(=O)N(CN1C(=O)CCC1C(=O)O)c1ccccc1` (centres undefined): the TGI in assay [1], in assay [2], in assay [10], in assay [3], in assay [4] and in assay [5] was greater than 100 µM each time. Further, the TGI in assay [6], in [7], in assay [8] and in assay [9] was greater than 100 µM in each case.

Regarding `O=C1/C(=C/c2ccccc2)CCc2ccc(Cl)nc21`, the TGI in [1] turned out to be 30.4 µM; in assay [2] it was 18.6 µM; in assay [10], 7.88 µM; in [3], 40.5 µM; in assay [4] it was 47.5 µM; in assay [5] it was 23.6 µM. Also, the TGI was found to be 61.9 µM in assay [6], 48.4 µM in assay [7], 7.15 µM in [8] and 0.705 µM in [9].

Regarding `C/C(=C/CO[Si](C)(C)C(C)(C)C)C(=O)N(C)c1ccccc1I`, the TGI is 33.7 µM in [1]; 35.9 µM in assay [2]; 77.9 µM in assay [10]; 33.8 µM in assay [3]; 33.4 µM in [4]; 28.6 µM in assay [5]. In addition, the TGI in [6] came out at 32.4 µM; in assay [7], 28.3 µM; in [8], 33.6 µM; in assay [9], 32 µM.

Turning to `CN(CCc1ccc(Cl)c(Cl)c1)[C@H]1CCCC[C@H]1N1CCCC1`, the TGI in assay [1], in assay [2], in assay [10], in assay [3], in assay [5] and in [6] was greater than 100 µM each time. The TGI in assay [7], in assay [8] and in [9] was greater than 100 µM throughout.

Regarding `Cc1cc(Cc2c(F)c(F)c(Cc3cc(C)no3)c(F)c2F)on1`, the TGI in assay [1] is greater than 100 µM; in [2], greater than 100 µM; in [10], greater than 100 µM; in assay [3] it was greater than 100 µM; in assay [4], 76.7 µM; in assay [5], greater than 100 µM. The TGI in [6] and in assay [9] was greater than 100 µM throughout.

On to `CCOC(=O)c1nc2c3c(ncn2n1)Oc1c(c(-c2ccccc2)nn1-c1ccccc1)C3c1ccc(Cl)cc1` (centres undefined), for which the TGI in [1], in assay [2], in [10], in assay [3], in assay [4] and in assay [5] was greater than 100 µM in each case. Also, the TGI in assay [6], in assay [7], in assay [8] and in [9] was greater than 100 µM in each case.

On to `N#CCCC1C(C#N)C2CC1C1C3C=CC(C3)C21` (centres undefined), for which the TGI in assay [1], in assay [2], in [10], in assay [3], in assay [4] and in [5] was greater than 100 µM each time. In addition, the TGI in [6], in assay [7], in [8] and in assay [9] was greater than 100 µM each time.

For `Cc1cc2ccccc2n1CC(=O)NCC(C)C`, the TGI in assay [1], in assay [2], in assay [10], in [3], in [4] and in assay [5] was greater than 100 µM each time. Further, the TGI in assay [6], in assay [7], in assay [8] and in [9] was greater than 100 µM each time.

Consider `CC1(C)COC(c2cccc(C3=NC(C)(C)CO3)c2Br)=N1`, for which the TGI in [1], in assay [2], in assay [10], in [3], in assay [4] and in assay [5] was greater than 100 µM each time. Besides, the TGI in [6], in [7], in assay [8] and in assay [9] was greater than 100 µM in each case.

On to `NC(N)=N/N=C/c1c(-c2ccc([N+](=O)[O-])cc2)nc2sccn12`, for which the TGI was determined as 2.87 µM in assay [1]; 3.58 µM in assay [2]; 28.3 µM in assay [10]; 1.96 µM in assay [3]; 3.27 µM in assay [4]; 3.38 µM in assay [5]. In addition, the TGI was determined as 2.73 µM in assay [7], 1.88 µM in assay [8] and 5.8 µM in assay [9].

On to `COc1ccc(C(O)c2ccc3c(c2)OCO3)cc1` (centres undefined), for which the TGI in assay [1], in assay [2], in assay [3], in [4], in [5] and in assay [6] was greater than 100 µM in each case. For the same compound, the TGI in assay [7], in assay [8] and in [9] was greater than 100 µM each time.

On to `CCCCCc1cc2c(cc1O)CC[C@@H]1[C@@H]2CC[C@]2(C)[C@@H](O)CC[C@@H]12`, for which the TGI worked out at 30.6 µM in [1]; 55.5 µM in assay [2]; 62.2 µM in [10]; 29.6 µM in assay [3]; 30.5 µM in assay [4]; 29.4 µM in assay [5]. The TGI in assay [6] turned out to be 32.6 µM; in assay [7], 40 µM; in assay [8], 26.1 µM; in assay [9], 41.4 µM.

As to `Cc1c2c3cc(O)ccc3nc-2n(C)c2ccccc12`, the TGI was 4.62 µM in [1]; 17.1 µM in assay [2]; greater than 100 µM in assay [10]; 5.83 µM in assay [4]; 4.6 µM in [5]; 8.54 µM in assay [6]. The figures for the TGI in assay [7], in assay [8] and in assay [9] were 6.28 µM, 5.28 µM and 19.8 µM, respectively.

As for `CC(NC(=O)/C(=C/c1ccccc1O)NC(=O)c1ccccc1)C(=O)O` (centres undefined), the TGI was greater than 100 µM in assay [1]; greater than 100 µM in [2]; greater than 100 µM in [10]; greater than 100 µM in [3]; 31.1 µM in assay [4]; greater than 100 µM in assay [5]. For the same compound, the TGI was 45.5 µM in assay [6], 76.2 µM in assay [7], greater than 100 µM in assay [8] and greater than 100 µM in assay [9].

On to `C#CCNC(Cc1cnc[nH]1)C(=O)O` (centres undefined), for which the TGI in assay [1], in [2], in assay [10], in assay [3], in assay [4] and in [5] was greater than 100 µM throughout. Moreover, the TGI in [6], in assay [8] and in [9] was greater than 100 µM throughout.

For `COc1ccc(/C=C/c2cc(O)cc(OC)c2)cc1`, the TGI in assay [1] is greater than 100 µM; in assay [2], greater than 100 µM; in assay [10], 78.7 µM; in [3] it was greater than 100 µM; in [4] it was greater than 100 µM; in assay [5], greater than 100 µM. In addition, the TGI in [6], in [8] and in assay [9] was greater than 100 µM throughout.

`Clc1nc(-[n+]2ccc(-c3ccncc3)cc2)nc(Nc2ccccc2)c1Cl`: the TGI in assay [1], in assay [2], in assay [10], in assay [3], in [5] and in [6] was greater than 100 µM in each case. Besides, the TGI in [7], in assay [8] and in assay [9] was greater than 100 µM in each case.

Consider `CCC1(CC)C(=O)CC[C@@]2(C)C1=CC[C@H]1[C@@H]3CC[C@H](O)[C@@]3(C)CC[C@@H]12`, for which the TGI in assay [1] is greater than 100 µM; in [2], 99.7 µM; in assay [10] it was 32.4 µM; in assay [3], 88.9 µM; in assay [4] it was greater than 100 µM; in assay [5] it was greater than 100 µM. Further, the TGI in assay [6] was 87.5 µM; in assay [8] it was greater than 100 µM; in [9], 46.4 µM.

Turning to `Cc1nnc2cc(C(=O)O)c3ccccc3n2c1=O`, the TGI in [1], in assay [2], in assay [10], in [3], in assay [4] and in assay [5] was greater than 10 µM in each case. Further, the TGI in [6], in assay [7] and in assay [9] was greater than 10 µM throughout.

On to `O=C1NC(=S)N/C1=C/c1ccccc1O`, for which the TGI in assay [1], in assay [2], in assay [10], in [3], in [5] and in assay [6] was greater than 100 µM in each case. Besides, the TGI in assay [7] and in [9] was greater than 100 µM in each case.
